Assay results taken from US10501466B2, “WDR5 inhibitors and modulators” (Vanderbilt University, priority 2017, dated 2019).

Tests used:
WDR5 = WDR5 (Homo sapiens (Human), UniProt P61964); conditions: FPA and TR-FRET binding affinity, WDR5 WIN-site
[1] = test system: MV4,11 human leukemia cells; test: cells; conditions: MV4-11, 168 h
Method: Anti-Proliferative Activity Using MLL-Harboring and Non-MLL Cell Lines.
Viability assays are performed by dispensing 5,000 cells into each well of an opaque 96-well plate and adding compounds at the indicated concentrations in a final volume of 100 μL and a final concentration of DMSO of 0.1% for all samples. After a set incubation period, either a 3 day or 7 day protocol, the viability of cells in each well is assessed using the CellTiter-Glo assay (Promega), read on a GloMax 96 Microplane Luminometer (Promega). Serial dilutions of each cell type are included in all assays to generate standard curves and determine assay measurements are taken within the dynamic range of the instrument. GI50 values are calculated based on three biological replicates, each with three technical replicates. Data are expressed as mean plus/minus S.E.M.

SMILES	Ki (WDR5) [µM]	GI50 [1] [µM]
COc1cccc(C(=O)N(CC2CC2)C2CCc3ccc(-c4cn5c(n4)CCC5)cc32)c1 (stereo not drawn) [Example B1, N-(cyclopropylmethyl)-N-(6-(6,7-dihydro-5H-pyrrolo[1,2-a]imidazol-2-yl)-2,3-dihydro-1H-inden-1-yl)-3-methoxybenzamide]	0.693	–
Cc1ccc(C(=O)NC2CCc3ccc(-c4cn5c(n4)CCC5)cc32)cc1C(F)(F)F (stereo not drawn) [Example B2, N-(6-(6,7-dihydro-5H-pyrrolo[1,2-a]imidazol-2-yl)-2,3-dihydro-1H-inden-1-yl)-4-methyl-3-(trifluoromethyl)benzamide]	1.38	–
CCOc1cccc(C(=O)NC2CCc3ccc(-c4cn5c(n4)CCC5)cc32)c1 (stereo not drawn) [Example B4, N-(6-(6,7-dihydro-5H-pyrrolo[1,2-a]imidazol-2-yl)-2,3-dihydro-1H-inden-1-yl)-3-ethoxybenzamide]	0.0191	–
COc1cc(C)cc(C(=O)NC2CCc3ccc(-c4cn5c(n4)CCC5)cc32)c1 (stereo not drawn) [Example B5, N-(6-(6,7-dihydro-5H-pyrrolo[1,2-a]imidazol-2-yl)-2,3-dihydro-1H-inden-1-yl)-3-methoxy-5-methylbenzamide]	0.027	–
CC(=O)N1CCCC(C(=O)NC2CCc3ccc(-c4cn5c(n4)CCC5)cc32)C1 (stereo not drawn) [Example B7, 1-acetyl-N-(6-(6,7-dihydro-5H-pyrrolo[1,2-a]imidazol-2-yl)-2,3-dihydro-1H-inden-1-yl)piperidine-3-carboxamide]	0.033	–
CCC(=O)N1CCCC(C(=O)NC2CCc3ccc(-c4cn5c(n4)CCC5)cc32)C1 (stereo not drawn) [Example B8, N-(6-(6,7-dihydro-5H-pyrrolo[1,2-a]imidazol-2-yl)-2,3-dihydro-1H-inden-1-yl)-1-propionylpiperidine-3-carboxamide]	0.021	–
O=C(NC1CCc2ccc(-c3cn4c(n3)CCC4)cc21)C1CCCN(C(=O)CC(F)(F)F)C1 (stereo not drawn) [Example B9, N-(6-(6,7-dihydro-5H-pyrrolo[1,2-a]imidazol-2-yl)-2,3-dihydro-1H-inden-1-yl)-1-(3,3,3-trifluoropropanoyl)piperidine-3-carboxamide]	0.09	–
CC(C)C(=O)N1CCCC(C(=O)NC2CCc3ccc(-c4cn5c(n4)CCC5)cc32)C1 (stereo not drawn) [Example B10, N-(6-(6,7-dihydro-5H-pyrrolo[1,2-a]imidazol-2-yl)-2,3-dihydro-1H-inden-1-yl)-1-isobutyrylpiperidine-3-carboxamide]	0.0709	–
O=C(Cc1ccc(Cl)c(Cl)c1)N[C@@H]1CCc2ccc(-c3cn4c(n3)CCC4)cc21 [Example B11, (R)-2-(3,4-dichlorophenyl)-N-(6-(6,7-dihydro-5H-pyrrolo[1,2-a]imidazol-2-yl)-2,3-dihydro-1H-inden-1-yl)acetamide]	–	8.89
COc1cc(C(=O)N[C@@H]2CCc3ccc(-c4cn5c(n4)CCC5)cc32)ccc1C [Example B12, (R)—N-(6-(6,7-dihydro-5H-pyrrolo[1,2-a]imidazol-2-yl)-2,3-dihydro-1H-inden-1-yl)-3-methoxy-4-methylbenzamide]	–	17.2
CC(=O)N1CCCC(C(=O)N[C@@H]2CCc3ccc(-c4cn5c(n4)CCC5)cc32)C1 (stereo partly drawn) [Example B13, 1-acetyl-N—((R)-6-(6,7-dihydro-5H-pyrrolo[1,2-a]imidazol-2-yl)-2,3-dihydro-1H-inden-1-yl)piperidine-3-carboxamide]	0.0174	–
COc1cc(C(=O)N[C@@H]2CCCc3ccc(-c4cn5c(n4)CCC5)cc32)ccc1C [Example B14, (R)—N-(7-(6,7-dihydro-5H-pyrrolo[1,2-a]imidazol-2-yl)-1,2,3,4-tetrahydronaphthalen-1-yl)-3-methoxy-4-methylbenzamide]	–	22.3
COc1cc(C(=O)N[C@@H]2CCc3ccc(-c4cn5c(n4)CCC5)cc32)cc(OC)c1C [Example B29, (R)—N-(6-(6,7-dihydro-5H-pyrrolo[1,2-a]imidazol-2-yl)-2,3-dihydro-1H-inden-1-yl)-3,5-dimethoxy-4-methylbenzamide]	–	7.25

Now from value to compound, other results behind:

Ki (WDR5) [µM]	SMILES	GI50 [1] [µM]
0.00237	O=C(Cc1ccc(Cl)c(F)c1)N[C@@H]1CCc2ccc(-c3cn4c(n3)CCC4)cc21 [Example B15, (R)-2-(4-chloro-3-fluorophenyl)-N-(6-(6,7-dihydro-5H-pyrrolo[1,2-a]imidazol-2-yl)-2,3-dihydro-1H-inden-1-yl)acetamide]	–
0.00716	CCC(=O)N1CCCC(C(=O)N[C@@H]2CCc3ccc(-c4cn5c(n4)CCC5)cc32)C1 (stereo partly drawn) [Example B16, N—((R)-6-(6,7-dihydro-5H-pyrrolo[1,2-a]imidazol-2-yl)-2,3-dihydro-1H-inden-1-yl)-1-propionylpiperidine-3-carboxamide]	–
0.0362	CC(=O)N1CCCC(C(=O)N[C@@H]2CCCc3ccc(-c4cn5c(n4)CCC5)cc32)C1 (stereo partly drawn) [Example B17, 1-acetyl-N—((R)-7-(6,7-dihydro-5H-pyrrolo[1,2-a]imidazol-2-yl)-1,2,3,4-tetrahydronaphthalen-1-yl)piperidine-3-carboxamide]	–
0.0143	CCC(=O)N1CCCC(C(=O)N[C@@H]2CCCc3ccc(-c4cn5c(n4)CCC5)cc32)C1 (stereo partly drawn) [Example B18, N—((R)-7-(6,7-dihydro-5H-pyrrolo[1,2-a]imidazol-2-yl)-1,2,3,4-tetrahydronaphthalen-1-yl)-1-propionylpiperidine-3-carboxamide]	–
0.172	COc1ccc(C(=O)N[C@@H]2CCc3ccc(-c4cn5c(n4)CCC5)cc32)cn1 [Example B19, (R)—N-(6-(6,7-dihydro-5H-pyrrolo[1,2-a]imidazol-2-yl)-2,3-dihydro-1H-inden-1-yl)-6-methoxynicotinamide]	–
0.0956	O=C(N[C@@H]1CCc2ccc(-c3cn4c(n3)CCC4)cc21)c1ccnc(Cl)c1 [Example B20, (R)-2-chloro-N-(6-(6,7-dihydro-5H-pyrrolo[1,2-a]imidazol-2-yl)-2,3-dihydro-1H-inden-1-yl)isonicotinamide]	–
0.0229	Cc1cnc(Cl)c(C(=O)N[C@@H]2CCc3ccc(-c4cn5c(n4)CCC5)cc32)c1 [Example B21, (R)-2-chloro-N-(6-(6,7-dihydro-5H-pyrrolo[1,2-a]imidazol-2-yl)-2,3-dihydro-1H-inden-1-yl)-5-methylnicotinamide]	–
0.426	Cc1cc(C(=O)N[C@@H]2CCc3ccc(-c4cn5c(n4)CCC5)cc32)cc(=O)[nH]1 [Example B22, (R)—N-(6-(6,7-dihydro-5H-pyrrolo[1,2-a]imidazol-2-yl)-2,3-dihydro-1H-inden-1-yl)-6-methyl-2-oxo-1,2-dihydropyridine-4-carboxamide]	–
0.769	Cc1cc(Cl)nc(C(=O)N[C@@H]2CCc3ccc(-c4cn5c(n4)CCC5)cc32)c1 [Example B23, (R)-6-chloro-N-(6-(6,7-dihydro-5H-pyrrolo[1,2-a]imidazol-2-yl)-2,3-dihydro-1H-inden-1-yl)-4-methylpicolinamide]	–
0.71	Cc1ccc(C(=O)N[C@@H]2CCc3ccc(-c4cn5c(n4)CCC5)cc32)cc1O [Example B25, (R)—N-(6-(6,7-dihydro-5H-pyrrolo[1,2-a]imidazol-2-yl)-2,3-dihydro-1H-inden-1-yl)-3-hydroxy-4-methylbenzamide]	–
0.0185	COc1cncc(C(=O)N[C@@H]2CCc3ccc(-c4cn5c(n4)CCC5)cc32)c1 [Example B26, (R)—N-(6-(6,7-dihydro-5H-pyrrolo[1,2-a]imidazol-2-yl)-2,3-dihydro-1H-inden-1-yl)-5-methoxynicotinamide]	–
0.73	CC(=O)Nc1cc(C(=O)N[C@@H]2CCc3ccc(-c4cn5c(n4)CCC5)cc32)ccc1C [Example B27, (R)-3-acetamido-N-(6-(6,7-dihydro-5H-pyrrolo[1,2-a]imidazol-2-yl)-2,3-dihydro-1H-inden-1-yl)-4-methylbenzamide]	–
0.169	Cc1ccc(C(=O)N[C@@H]2CCc3ccc(-c4cn5c(n4)CCC5)cc32)c(Cl)n1 [Example B28, (R)-2-chloro-N-(6-(6,7-dihydro-5H-pyrrolo[1,2-a]imidazol-2-yl)-2,3-dihydro-1H-inden-1-yl)-6-methylnicotinamide]	–
3.75	O=C(N[C@@H]1CCc2ccc(-c3cn4c(n3)CCC4)cc21)c1ccncc1F [Example B30, (R)—N-(6-(6,7-dihydro-5H-pyrrolo[1,2-a]imidazol-2-yl)-2,3-dihydro-1H-inden-1-yl)-3-fluoroisonicotinamide]	–
0.835	O=C(N[C@@H]1CCc2ccc(-c3cn4c(n3)CCC4)cc21)c1ccc(=O)[nH]c1 [Example B31, (R)—N-(6-(6,7-dihydro-5H-pyrrolo[1,2-a]imidazol-2-yl)-2,3-dihydro-1H-inden-1-yl)-6-oxo-1,6-dihydropyridine-3-carboxamide]	–
0.568	O=C(N[C@@H]1CCc2ccc(-c3cn4c(n3)CCC4)cc21)c1cncc(F)c1 [Example B32, (R)—N-(6-(6,7-dihydro-5H-pyrrolo[1,2-a]imidazol-2-yl)-2,3-dihydro-1H-inden-1-yl)-5-fluoronicotinamide]	–
0.0222	COc1cc(C(=O)N[C@@H]2CCN(C(C)=O)c3ccc(-c4cn5c(n4)CCC5)cc32)ccc1C [Example B33, (R)—N-(1-acetyl-6-(6,7-dihydro-5H-pyrrolo[1,2-a]imidazol-2-yl)-1,2,3,4-tetrahydroquinolin-4-yl)-3-methoxy-4-methylbenzamide]	–
